Measured values: US20020137929A1, “1 - (3-heterocyclylphenyl) isothiourea, -isourea, -guanidine and -amidine herbicidal agents” (Intellectual Property Department, BASF Aktiengesellschaft, priority 1998, published 2002)

Tests used:
[1] = system: TRZAWR (Wheat, Winter, cv Riband); test: Preemergence herbicidal evaluation; format: in vivo, Triticum aestivum; settings: rated 4-5 weeks after treatment
Method in brief: (§1)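 Seeds were planted in potting soil in cups, then sprayed preemergence with the test compound in aqueous acetone at about 0.0156 to 0.500 kg per hectare. Cups were kept under greenhouse conditions and visually rated 4–5 weeks after treatment on a 0–9 scale against an untreated control.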

[2] = system: ECHORC (Watergrass (Calif.)); test: Preemergence weed control under flooded paddy conditions; format: in vivo, Echinochloa oryzoides; settings: rated 3-4 weeks after treatment
Method in brief: (§2)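 Seeds or propagules sown in silt loam kept flooded 1.5-3 cm; compounds in 50/50 acetone/water pipetted into flood water at about 0.0313 to 0.500 kg/ha. Greenhouse; visual 0-9 rating versus untreated control 3-4 weeks after treatment.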

[3] = system: IPOHE (Morningglory, Ivyleaf); test: Preemergence herbicidal evaluation; format: in vivo, Ipomoea hederacea; settings: rated 4-5 weeks after treatment
Method in brief: as §1

CASOB (Sicklepod) = test: Postemergence herbicidal evaluation; format: in vivo, Cassia obtusifolia; settings: postemergence
Method in brief: (§3)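 Seedlings grown about two weeks were sprayed at 40 psi with compound dispersed in 50/50 acetone/water plus 0.5% TWEEN 20, at about 0.0156 to 0.500 kg/ha. Plants were kept in the greenhouse and scored 4–5 weeks later on a 0–9 visual scale against untreated controls.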

[4] = system: CHEAL (Lambsquarters, Common); test: Preemergence herbicidal evaluation; format: in vivo, Chenopodium album; settings: rated 4-5 weeks after treatment
Method in brief: as §1

AMBEL (Ragweed, Common) = test: Preemergence herbicidal evaluation; format: in vivo, Ambrosia artemisifolia; settings: rated 4-5 weeks after treatment
Method in brief: as §1

ZEAMX (Corn, Field) [5] = test: Postemergence herbicidal evaluation; format: in vivo, Zea mays; settings: postemergence
Method in brief: as §3

CYPSE (Flatsedge) [6] = test: Preemergence weed control under flooded paddy conditions; format: in vivo, Cyperus serotinus; settings: rated 3-4 weeks after treatment
Method in brief: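 Visual injury scored 0-9 against control three to four weeks post-treatment, greenhouse-grown. Application: acetone/water (50/50) solutions dosed directly into flood water (1.5-3 cm over silt loam, planted top 0.5 cm), roughly 0.0313 to 0.500 kg/ha active ingredient.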

[7] = system: ECHORC (Watergrass (Calif.)); test: Postemergence weed control under flooded paddy conditions; format: in vivo, Echinochloa oryzoides; settings: postemergence weeds, rated 3 to 4 weeks after treatment
Method in brief: (§4)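 Weeds 3 to 5 cm tall and rice seedlings at the 1.5 to 2.5 leaf stage were flooded, with water held 1.5 to 3 cm above the soil. Compounds in 50/50 v/v aqueous/acetone went into the flood water at about 0.0313 to 0.500 kg/ha. Visual 0-9 ratings versus control were made 3 to 4 weeks later.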

CYPSE (Flatsedge) [8] = test: as above; format: in vivo, Cyperus serotinus; settings: postemergence weeds, rated 3 to 4 weeks after treatment
Method in brief: as §4

ORYSAT (Rice, Tebonnet) = test: Preemergence herbicidal evaluation; format: in vivo, Oryza sativa, (L.) Tebonnet; settings: rated 4-5 weeks after treatment
Method in brief: as §1

ZEAMX (Corn, Field) [9] = test: Preemergence herbicidal evaluation; format: in vivo, Zea mays; settings: rated 4-5 weeks after treatment
Method in brief: as §1

CYPIR (Rice Flatsedge) = test: Preemergence weed control under flooded paddy conditions; format: in vivo, Cyperus iria; settings: rated 3-4 weeks after treatment
Method in brief: as §2

GALAP (Galium) = test: Postemergence herbicidal evaluation; format: in vivo, Galium aparine; settings: postemergence
Method in brief: as §3

CC(C)S(=O)(=O)NC(=O)CC1SC(=Nc2cc(-n3c(=O)cc(C(F)(F)F)n(C)c3=O)c(F)cc2Cl)N(C)C1=O (centres unmarked) [Compound 119, 2-{{2-Chloro-5-[3,6-dihydro-3-methyl-2,6-dioxo-4-(trifluoromethyl)-1(2H)-pyrimidinyl]-4-fluorophenyl}imino}-N-(isopropylsulfonyl)-3-methyl-4-oxo-5-thiazolidineacetamide]
5.0: Herbicidal rating CASOB (CASOB (Sicklepod); rate 0.0313 kg/ha)
2.0: Herbicidal rating ECHORC ([7]; Rate 0.0625 kg/ha)
4.5: Herbicidal rating ZEAMX (ZEAMX (Corn, Field) [5]; rate 0.0156 kg/ha) | herbicidal effect rating, CYPIR (CYPIR (Rice Flatsedge); 0.0313 kg/ha)
7.0: Herbicidal rating CASOB (CASOB (Sicklepod); rate 0.0625 kg/ha) | herbicidal effect rating, CYPIR (CYPIR (Rice Flatsedge); 0.0625 kg/ha)
8.0: herbicidal effect rating, ECHORC ([2]; 0.0313 kg/ha) | herbicidal effect rating, CYPIR (CYPIR (Rice Flatsedge); 0.2500 kg/ha)
6.0: Herbicidal rating ZEAMX (ZEAMX (Corn, Field) [5]; rate 0.0625 kg/ha)
0.0: Preemergence herbicidal rating TRZAWR ([1]; rate 0.0156 kg/ha) | Preemergence herbicidal rating TRZAWR ([1]; rate 0.0313 kg/ha) | Preemergence herbicidal rating TRZAWR ([1]; rate 0.0625 kg/ha) | Preemergence herbicidal rating TRZAWR ([1]; rate 0.1250 kg/ha) | Preemergence herbicidal rating TRZAWR ([1]; rate 0.2500 kg/ha) | Preemergence herbicidal rating IPOHE ([3]; rate 0.0156 kg/ha) | Preemergence herbicidal rating IPOHE ([3]; rate 0.0313 kg/ha) | Preemergence herbicidal rating IPOHE ([3]; rate 0.0625 kg/ha) | Preemergence herbicidal rating AMBEL (AMBEL (Ragweed, Common); rate 0.0156 kg/ha) | Preemergence herbicidal rating AMBEL (AMBEL (Ragweed, Common); rate 0.0313 kg/ha) | Preemergence herbicidal rating AMBEL (AMBEL (Ragweed, Common); rate 0.0625 kg/ha) | herbicidal effect rating, CYPSE (CYPSE (Flatsedge) [6]; 0.0313 kg/ha) | herbicidal effect rating, CYPSE (CYPSE (Flatsedge) [6]; 0.0625 kg/ha) | herbicidal effect rating, CYPSE (CYPSE (Flatsedge) [6]; 0.1250 kg/ha) | Herbicidal rating ECHORC ([7]; Rate 0.0313 kg/ha) | Herbicidal rating CYPSE (CYPSE (Flatsedge) [8]; Rate 0.0313 kg/ha) | Herbicidal rating CYPSE (CYPSE (Flatsedge) [8]; Rate 0.0625 kg/ha) | Herbicidal rating CYPSE (CYPSE (Flatsedge) [8]; Rate 0.1250 kg/ha) | Preemergence herbicidal rating ORYSAT (ORYSAT (Rice, Tebonnet); rate 0.0156 kg/ha) | Preemergence herbicidal rating ORYSAT (ORYSAT (Rice, Tebonnet); rate 0.0313 kg/ha) | Preemergence herbicidal rating ORYSAT (ORYSAT (Rice, Tebonnet); rate 0.0625 kg/ha) | Preemergence herbicidal rating ORYSAT (ORYSAT (Rice, Tebonnet); rate 0.1250 kg/ha) | Preemergence herbicidal rating ORYSAT (ORYSAT (Rice, Tebonnet); rate 0.2500 kg/ha) | Preemergence herbicidal rating ZEAMX (ZEAMX (Corn, Field) [9]; rate 0.0156 kg/ha) | Preemergence herbicidal rating ZEAMX (ZEAMX (Corn, Field) [9]; rate 0.0313 kg/ha) | Preemergence herbicidal rating ZEAMX (ZEAMX (Corn, Field) [9]; rate 0.0625 kg/ha) | Preemergence herbicidal rating ZEAMX (ZEAMX (Corn, Field) [9]; rate 0.1250 kg/ha)
3.0: Herbicidal rating CASOB (CASOB (Sicklepod); rate 0.0156 kg/ha) | Herbicidal rating GALAP (GALAP (Galium); rate 0.0625 kg/ha)
1.0: herbicidal effect rating, CYPSE (CYPSE (Flatsedge) [6]; 0.2500 kg/ha) | Preemergence herbicidal rating ZEAMX (ZEAMX (Corn, Field) [9]; rate 0.2500 kg/ha) | Herbicidal rating GALAP (GALAP (Galium); rate 0.0156 kg/ha) | Herbicidal rating GALAP (GALAP (Galium); rate 0.0313 kg/ha)
4.0: Preemergence herbicidal rating AMBEL (AMBEL (Ragweed, Common); rate 0.1250 kg/ha) | Preemergence herbicidal rating AMBEL (AMBEL (Ragweed, Common); rate 0.2500 kg/ha) | Herbicidal rating ECHORC ([7]; Rate 0.1250 kg/ha) | Herbicidal rating ECHORC ([7]; Rate 0.2500 kg/ha)
9.0: herbicidal effect rating, ECHORC ([2]; 0.0625 kg/ha) | herbicidal effect rating, ECHORC ([2]; 0.1250 kg/ha) | herbicidal effect rating, ECHORC ([2]; 0.2500 kg/ha) | Preemergence herbicidal rating IPOHE ([3]; rate 0.1250 kg/ha) | Preemergence herbicidal rating IPOHE ([3]; rate 0.2500 kg/ha) | Preemergence herbicidal rating CHEAL ([4]; rate 0.0156 kg/ha) | Preemergence herbicidal rating CHEAL ([4]; rate 0.0313 kg/ha) | Preemergence herbicidal rating CHEAL ([4]; rate 0.0625 kg/ha) | Preemergence herbicidal rating CHEAL ([4]; rate 0.1250 kg/ha) | Preemergence herbicidal rating CHEAL ([4]; rate 0.2500 kg/ha)
8.5: herbicidal effect rating, CYPIR (CYPIR (Rice Flatsedge); 0.1250 kg/ha)
5.5: Herbicidal rating ZEAMX (ZEAMX (Corn, Field) [5]; rate 0.0313 kg/ha)

CC(C)C[C@@H](C(=O)O)N1C(=O)CSC1=Nc1cc(-n2c(=O)cc(C(F)(F)F)n(C)c2=O)c(F)cc1Cl [Compound 71, α-Isobutyl-2-{{2-chloro-5-[3,6-dihydro-3-methyl-2,6-dioxo-4-(trifluoromethyl)-1(2H)-pyrimidinyl]-4-fluorophenyl}imino}-4-oxo-3-thiazolidineacetic acid, L-]
0.0: Preemergence herbicidal rating TRZAWR ([1]; rate 0.0156 kg/ha) | Preemergence herbicidal rating TRZAWR ([1]; rate 0.0313 kg/ha) | Preemergence herbicidal rating TRZAWR ([1]; rate 0.0625 kg/ha) | ECHORC herbicidal effect rating ([2]; 0.1250 kg/ha) | Preemergence herbicidal rating IPOHE ([3]; rate 0.0156 kg/ha) | Preemergence herbicidal rating IPOHE ([3]; rate 0.0313 kg/ha) | Preemergence herbicidal rating IPOHE ([3]; rate 0.0625 kg/ha) | Herbicidal rating ECHORC ([7]; Rate 0.1250 kg/ha) | Preemergence herbicidal rating ORYSAT (ORYSAT (Rice, Tebonnet); rate 0.0156 kg/ha) | Preemergence herbicidal rating ORYSAT (ORYSAT (Rice, Tebonnet); rate 0.0313 kg/ha) | Preemergence herbicidal rating ORYSAT (ORYSAT (Rice, Tebonnet); rate 0.0625 kg/ha) | Preemergence herbicidal rating ZEAMX (ZEAMX (Corn, Field) [9]; rate 0.0156 kg/ha) | Preemergence herbicidal rating ZEAMX (ZEAMX (Corn, Field) [9]; rate 0.0313 kg/ha) | Preemergence herbicidal rating ZEAMX (ZEAMX (Corn, Field) [9]; rate 0.0625 kg/ha)
1.0: Preemergence herbicidal rating TRZAWR ([1]; rate 0.1250 kg/ha) | Preemergence herbicidal rating AMBEL (AMBEL (Ragweed, Common); rate 0.0156 kg/ha) | Preemergence herbicidal rating ORYSAT (ORYSAT (Rice, Tebonnet); rate 0.1250 kg/ha)
3.0: Preemergence herbicidal rating TRZAWR ([1]; rate 0.2500 kg/ha) | CASOB herbicidal rating (CASOB (Sicklepod); rate 0.0315 kg/ha) | Preemergence herbicidal rating CHEAL ([4]; rate 0.0156 kg/ha) | CYPSE herbicidal effect rating (CYPSE (Flatsedge) [6]; 0.1250 kg/ha) | CYPSE herbicidal effect rating (CYPSE (Flatsedge) [6]; 0.2500 kg/ha) | Herbicidal rating CYPSE (CYPSE (Flatsedge) [8]; Rate 0.1250 kg/ha) | Herbicidal rating CYPSE (CYPSE (Flatsedge) [8]; Rate 0.2500 kg/ha) | Preemergence herbicidal rating ORYSAT (ORYSAT (Rice, Tebonnet); rate 0.2500 kg/ha) | Preemergence herbicidal rating ZEAMX (ZEAMX (Corn, Field) [9]; rate 0.1250 kg/ha) | Preemergence herbicidal rating ZEAMX (ZEAMX (Corn, Field) [9]; rate 0.2500 kg/ha) | CYPIR herbicidal effect rating (CYPIR (Rice Flatsedge); 0.1250 kg/ha)
5.0: ZEAMX herbicidal rating (ZEAMX (Corn, Field) [5]; rate 0.0158 kg/ha) | ZEAMX herbicidal rating (ZEAMX (Corn, Field) [5]; rate 0.0315 kg/ha)
9.0: Preemergence herbicidal rating IPOHE ([3]; rate 0.1250 kg/ha) | Preemergence herbicidal rating IPOHE ([3]; rate 0.2500 kg/ha) | Preemergence herbicidal rating CHEAL ([4]; rate 0.0313 kg/ha) | Preemergence herbicidal rating CHEAL ([4]; rate 0.0625 kg/ha) | Preemergence herbicidal rating CHEAL ([4]; rate 0.1250 kg/ha) | Preemergence herbicidal rating CHEAL ([4]; rate 0.2500 kg/ha) | Preemergence herbicidal rating AMBEL (AMBEL (Ragweed, Common); rate 0.1250 kg/ha) | Preemergence herbicidal rating AMBEL (AMBEL (Ragweed, Common); rate 0.2500 kg/ha)
4.0: CASOB herbicidal rating (CASOB (Sicklepod); rate 0.0630 kg/ha) | GALAP herbicidal rating (GALAP (Galium); rate 0.0158 kg/ha)
7.0: ECHORC herbicidal effect rating ([2]; 0.2500 kg/ha) | Preemergence herbicidal rating AMBEL (AMBEL (Ragweed, Common); rate 0.0625 kg/ha) | ZEAMX herbicidal rating (ZEAMX (Corn, Field) [5]; rate 0.0630 kg/ha) | Herbicidal rating ECHORC ([7]; Rate 0.2500 kg/ha) | CYPIR herbicidal effect rating (CYPIR (Rice Flatsedge); 0.2500 kg/ha) | GALAP herbicidal rating (GALAP (Galium); rate 0.0630 kg/ha)
2.0: CASOB herbicidal rating (CASOB (Sicklepod); rate 0.0158 kg/ha) | Preemergence herbicidal rating AMBEL (AMBEL (Ragweed, Common); rate 0.0313 kg/ha)
6.0: GALAP herbicidal rating (GALAP (Galium); rate 0.0315 kg/ha)
